In patent US10485235B2, “Aryloxypyrimidinyl ethers as herbicides” (FMC Corporation, priority 2015, dated 2019):

Experiments:
Format in all cases: in vivo
[1] = system: wheat (Triticum aestivum); test: Test A postemergence, wheat; details: postemergence, 0 to 100 scale, 0 is no effect, 100 is complete control, approximately 10 days
Summary of the method: (§1)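 Injury was assessed visually about ten days after application, relative to untreated plants, with 0 meaning no effect and 100 complete control. Treatments were soil-directed sprays after sowing (pre) or sprays on seedlings at one to two leaves (post), in loam soil/sand.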

[2] = system: barnyardgrass (Echinochloa crus-galli); test: Test A preemergence, barnyardgrass; details: Preemergence, 0 to 100 scale (0 no effect, 100 complete control)
Summary of the method: as §1

[3] = system: galium (catchweed bedstraw, Galium aparine); test: Test A postemergence, galium; details: postemergence, 0 to 100 scale, 0 is no effect, 100 is complete control, approximately 10 days
Summary of the method: as §1

kochia (Kochia scoparia) [4] = test: Test A preemergence, kochia; details: Preemergence, 0 to 100 scale (0 no effect, 100 complete control)
Summary of the method: as §1

[5] = system: barnyardgrass (Echinochloa crus-galli); test: Test B flooded paddy test, barnyardgrass; details: 250 g ai/ha, Flood; visual rating after 13 to 15 days; scale 0 to 100, 0 is no effect, 100 is complete control
Summary of the method: (§2)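 Visual ratings, 0 = no effect to 100 = complete control, versus controls after 13 to 15 days in greenhouse. Test compounds were added to paddy water kept 3 cm over the soil surface, on plants at 2-leaf stage.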

[6] = system: sedge, umbrella (small-flower umbrella sedge, Cyperus difformis); test: Test B flooded paddy test, umbrella sedge; details: 250 g ai/ha, Flood; visual rating after 13 to 15 days; scale 0 to 100, 0 is no effect, 100 is complete control
Summary of the method: as §2

[7] = system: blackgrass (Alopecurus myosuroides); test: Test A postemergence, blackgrass; details: postemergence, 0 to 100 scale, 0 is no effect, 100 is complete control, approximately 10 days
Summary of the method: as §1

[8] = system: ryegrass, Italian (Italian ryegrass, Lolium multiflorum); test: Test A preemergence, Italian ryegrass; details: Preemergence, 0 to 100 scale (0 no effect, 100 complete control)
Summary of the method: as §1

rice (Oryza sativa) = test: Test B flooded paddy test, rice; details: 250 g ai/ha, Flood; visual rating after 13 to 15 days; scale 0 to 100, 0 is no effect, 100 is complete control
Summary of the method: as §2

[9] = system: pigweed (Amaranthus retroflexus); test: Test A preemergence, pigweed; details: Preemergence, 0 to 100 scale (0 no effect, 100 complete control)
Summary of the method: as §1

[10] = system: pigweed (Amaranthus retroflexus); test: Test A postemergence, pigweed; details: postemergence, 0 to 100 scale, 0 is no effect, 100 is complete control, approximately 10 days
Summary of the method: as §1

[11] = system: foxtail, giant (giant foxtail, Setaria faberii); test: Test A preemergence, giant foxtail; details: Preemergence, 0 to 100 scale (0 no effect, 100 complete control)
Summary of the method: as §1

[12] = system: ragweed (common ragweed, Ambrosia elatior); test: Test A postemergence, ragweed; details: postemergence, 0 to 100 scale, 0 is no effect, 100 is complete control, approximately 10 days
Summary of the method: as §1

kochia (Kochia scoparia) [13] = test: Test A postemergence, kochia; details: postemergence, 0 to 100 scale, 0 is no effect, 100 is complete control, approximately 10 days
Summary of the method: as §1

[14] = system: ragweed (common ragweed, Ambrosia elatior); test: Test A preemergence, ragweed; details: Preemergence, 0 to 100 scale (0 no effect, 100 complete control)
Summary of the method: as §1

[15] = system: barnyardgrass (Echinochloa crus-galli); test: Test A postemergence, barnyardgrass; details: postemergence, 0 to 100 scale, 0 is no effect, 100 is complete control, approximately 10 days
Summary of the method: as §1

corn (Zea mays) = test: Test A postemergence, corn; details: postemergence, 0 to 100 scale, 0 is no effect, 100 is complete control, approximately 10 days
Summary of the method: as §1

[16] = system: foxtail, giant (giant foxtail, Setaria faberii); test: Test A postemergence, giant foxtail; details: postemergence, 0 to 100 scale, 0 is no effect, 100 is complete control, approximately 10 days
Summary of the method: as §1

[17] = system: ducksalad (Heteranthera limosa); test: Test B flooded paddy test, ducksalad; details: 250 g ai/ha, Flood; visual rating after 13 to 15 days; scale 0 to 100, 0 is no effect, 100 is complete control
Summary of the method: as §2

[18] = system: ryegrass, Italian (Italian ryegrass, Lolium multiflorum); test: Test A postemergence, Italian ryegrass; details: postemergence, 0 to 100 scale, 0 is no effect, 100 is complete control, approximately 10 days
Summary of the method: as §1

Compound | Plant response rating, Wheat ([1]; 31 g ai/ha) | Plant response rating, Wheat ([1]; 125 g ai/ha) | Plant response rating, Barnyardgrass ([2]; 31 g ai/ha) | Plant response rating, Barnyardgrass ([2]; 125 g ai/ha) | Plant response rating, Galium ([3]; 31 g ai/ha) | Plant response rating, Galium ([3]; 125 g ai/ha) | Plant response rating, Kochia (kochia (Kochia scoparia) [4]; 31 g ai/ha) | Plant response rating, Kochia (kochia (Kochia scoparia) [4]; 125 g ai/ha) | Plant response rating, Barnyardgrass [5] | Plant response rating, Sedge, Umbrella [6] | Plant response rating, Blackgrass ([7]; 31 g ai/ha) | Plant response rating, Blackgrass ([7]; 125 g ai/ha) | Plant response rating, Ryegrass, Italian ([8]; 31 g ai/ha) | Plant response rating, Ryegrass, Italian ([8]; 125 g ai/ha) | Plant response rating, Rice (rice (Oryza sativa)) | Plant response rating, Pigweed ([9]; 31 g ai/ha) | Plant response rating, Pigweed ([9]; 125 g ai/ha) | Plant response rating, Pigweed ([10]; 31 g ai/ha) | Plant response rating, Pigweed ([10]; 125 g ai/ha) | Plant response rating, Foxtail, Giant ([11]; 31 g ai/ha) | also measured
Cc1cccc(Oc2ncc(Cl)cn2)c1OCCCF [Compound 57] | 0 | 0 | 0 | 20 | 0 | 0 | 0 | 20 | 0 | 30 | 0 | 0 | 0 | 0 | 0 | 0 | 60 | 10 | 20 | 0 | Plant response rating, Foxtail, Giant ([11]; 125 g ai/ha): 30; Plant response rating, Ragweed ([12]; 31 g ai/ha): 0; Plant response rating, Ragweed ([12]; 125 g ai/ha): 0; Plant response rating, Kochia (kochia (Kochia scoparia) [13]; 31 g ai/ha): 0; Plant response rating, Kochia (kochia (Kochia scoparia) [13]; 125 g ai/ha): 20; Plant response rating, Ragweed ([14]; 31 g ai/ha): 0; Plant response rating, Ragweed ([14]; 125 g ai/ha): 0; Plant response rating, Barnyardgrass ([15]; 31 g ai/ha): 0; Plant response rating, Barnyardgrass ([15]; 125 g ai/ha): 0; Plant response rating, Corn (corn (Zea mays); 31 g ai/ha): 0; Plant response rating, Corn (corn (Zea mays); 125 g ai/ha): 10; Plant response rating, Foxtail, Giant ([16]; 31 g ai/ha): 0; Plant response rating, Foxtail, Giant ([16]; 125 g ai/ha): 10; Plant response rating, Ducksalad [17]: 70; Plant response rating, Ryegrass, Italian ([18]; 31 g ai/ha): 0; Plant response rating, Ryegrass, Italian ([18]; 125 g ai/ha): 0
FC(F)(F)CCCOc1c(I)cccc1Oc1ncc(Cl)cn1 [Compound 60] | 0 | 20 | 20 | 80 | 70 | 100 | 30 | 40 | 20 | 95 | 30 | 50 | 0 | 90 | 25 | 70 | 100 | 90 | 90 | 90 | Plant response rating, Foxtail, Giant ([11]; 125 g ai/ha): 90; Plant response rating, Ragweed ([12]; 31 g ai/ha): 0; Plant response rating, Ragweed ([12]; 125 g ai/ha): 30; Plant response rating, Kochia (kochia (Kochia scoparia) [13]; 31 g ai/ha): 90; Plant response rating, Kochia (kochia (Kochia scoparia) [13]; 125 g ai/ha): 90; Plant response rating, Ragweed ([14]; 31 g ai/ha): 0; Plant response rating, Ragweed ([14]; 125 g ai/ha): 0; Plant response rating, Barnyardgrass ([15]; 31 g ai/ha): 30; Plant response rating, Barnyardgrass ([15]; 125 g ai/ha): 100; Plant response rating, Corn (corn (Zea mays); 31 g ai/ha): 30; Plant response rating, Corn (corn (Zea mays); 125 g ai/ha): 30; Plant response rating, Foxtail, Giant ([16]; 31 g ai/ha): 30; Plant response rating, Foxtail, Giant ([16]; 125 g ai/ha): 80; Plant response rating, Ducksalad [17]: 100; Plant response rating, Ryegrass, Italian ([18]; 31 g ai/ha): 0; Plant response rating, Ryegrass, Italian ([18]; 125 g ai/ha): 70
FC(F)(F)/C=C/COc1c(I)cccc1Oc1ncc(Cl)cn1 [Compound 61] | 0 | 0 | 0 | 20 | 20 | 50 | 0 | 0 | 20 | 95 | 0 | 0 | 0 | 0 | 25 | 0 | 70 | 80 | 90 | 0 | Plant response rating, Foxtail, Giant ([11]; 125 g ai/ha): 80; Plant response rating, Ragweed ([12]; 31 g ai/ha): 0; Plant response rating, Ragweed ([12]; 125 g ai/ha): 0; Plant response rating, Kochia (kochia (Kochia scoparia) [13]; 31 g ai/ha): 40; Plant response rating, Kochia (kochia (Kochia scoparia) [13]; 125 g ai/ha): 90; Plant response rating, Ragweed ([14]; 31 g ai/ha): 0; Plant response rating, Ragweed ([14]; 125 g ai/ha): 0; Plant response rating, Barnyardgrass ([15]; 31 g ai/ha): 0; Plant response rating, Barnyardgrass ([15]; 125 g ai/ha): 50; Plant response rating, Corn (corn (Zea mays); 31 g ai/ha): 10; Plant response rating, Corn (corn (Zea mays); 125 g ai/ha): 30; Plant response rating, Foxtail, Giant ([16]; 31 g ai/ha): 0; Plant response rating, Foxtail, Giant ([16]; 125 g ai/ha): 30; Plant response rating, Ducksalad [17]: 100; Plant response rating, Ryegrass, Italian ([18]; 31 g ai/ha): 0; Plant response rating, Ryegrass, Italian ([18]; 125 g ai/ha): 0
N#Cc1cccc(Oc2ncc(Cl)cn2)c1OCC(=O)CCC(F)(F)F [Compound 62] | 0 | 0 | 0 | 0 | 0 | 0 | 0 | 0 | 0 | 0 | 0 | 0 | 0 | 0 | 0 | 0 | 0 | 0 | 0 | 0 | Plant response rating, Foxtail, Giant ([11]; 125 g ai/ha): 0; Plant response rating, Ragweed ([12]; 31 g ai/ha): 0; Plant response rating, Ragweed ([12]; 125 g ai/ha): 0; Plant response rating, Kochia (kochia (Kochia scoparia) [13]; 31 g ai/ha): 0; Plant response rating, Kochia (kochia (Kochia scoparia) [13]; 125 g ai/ha): 0; Plant response rating, Ragweed ([14]; 31 g ai/ha): 0; Plant response rating, Ragweed ([14]; 125 g ai/ha): 0; Plant response rating, Barnyardgrass ([15]; 31 g ai/ha): 0; Plant response rating, Barnyardgrass ([15]; 125 g ai/ha): 0; Plant response rating, Corn (corn (Zea mays); 31 g ai/ha): 0; Plant response rating, Corn (corn (Zea mays); 125 g ai/ha): 0; Plant response rating, Foxtail, Giant ([16]; 31 g ai/ha): 0; Plant response rating, Foxtail, Giant ([16]; 125 g ai/ha): 0; Plant response rating, Ducksalad [17]: 0; Plant response rating, Ryegrass, Italian ([18]; 31 g ai/ha): 0; Plant response rating, Ryegrass, Italian ([18]; 125 g ai/ha): 0
